Drawing on PubChem BioAssay (NCI), this text covers TGI for 2 compounds.

Test systems include NCI-H460 lung; HCC-2998 colon; OVCAR-4 ovarian; SF-295 CNS; KM12 colon; HOP-92 NSCLC; RXF 393 renal; A498 renal; SK-OV-3 ovarian; SNB-75 CNS; SN12C renal; T-47D breast.
Holding throughout (experiment): growth of human tumour cells (NCI), 48 h

Each structure is given as a SMILES string.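 Results reflect a 48-hour exposure of cells in 96-well plates to compound at five concentrations. TGI: total growth inhibition.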

Turning to `Oc1ccc(Cl)cc1CN1CCN(Cc2cc(Cl)ccc2O)C1`, the TGI is 4.96 µM in the assay with NCI-H460 lung; 2.97 µM with HCC-2998 colon; 17 µM in the assay on OVCAR-4 ovarian; 7.73 µM with SF-295 CNS; 3.49 µM with KM12 colon; 5.15 µM in the assay on HOP-92 NSCLC. Besides, the TGI is 4.14 µM in the assay with RXF 393 renal; 29.4 µM with A498 renal; 13.3 µM with SK-OV-3 ovarian; 7.59 µM with SNB-75 CNS; 5.19 µM in the assay on SN12C renal; 10.9 µM in the assay with T-47D breast.
As for `CCOC(=O)C(Cc1cccn1C(=O)OC(C)(C)C)[N+](=O)[O-]` (centres undefined), the TGI is 53.4 µM in the assay with NCI-H460 lung; 42.4 µM in the assay on HCC-2998 colon; 89 µM with OVCAR-4 ovarian; 99.4 µM with SF-295 CNS; 55.5 µM in the assay with KM12 colon; 74.2 µM in the assay with HOP-92 NSCLC. In addition, the TGI in the assay with RXF 393 renal is 34.4 µM; in the assay with A498 renal it was 40.6 µM; in the assay with SK-OV-3 ovarian, above 100 µM; with SNB-75 CNS it was 54.9 µM; in the assay on SN12C renal it was 62.9 µM; with T-47D breast it was above 100 µM.
